Assay results as given in US20260285853A1, “COMPOUNDS AND METHODS FOR MODULATING SPLICING” (REMIX THERAPEUTICS INC., priority 2023, published 2026).
Where two headings read alike, the source gives them in different places.

What was measured:
Assay type in all cases: cell-based
[1] = tested on: HTT mRNA; assay: Splicing RT-qPCR assay (THP), Table 2A
[2] = tested on: MYB mRNA; assay: Splicing RT-qPCR assay (THP), Table 2A
[3] = tested on: HTT mRNA; assay: Gene panel canonical junction qPCR assay, decrease in CJ mRNA, Table 3
In short: (§1)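 Cells: A673 or K562; 24 h compound exposure, 37 °C, 5% CO2; 11-pt 3-fold series from 10 uM final; DMSO ≤0.25%. Lysate → cDNA → qPCR with junction-spanning primers/probe for CJ transcript. ΔCt vs housekeeper, ΔΔCt vs DMSO, 2^(−ΔΔCt), % response, 4PL → IC50.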

[4] = tested on: MYB mRNA; assay: as above
In short: as §1

[5] = tested on: SH-SY5Y (human neuroblastoma) cells; assay: Cell viability, Cell Titer Glo 2.0 assay; details: read-out: Viability SHSY5Y.3 GI50
In short: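 CellTiter-Glo 2.0 luminescence read-out after 72 h compound exposure (37 °C, 5% CO2); medium-only wells as blank. DMSO 0.1% final.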

[6] = Table 2A, THP, HTT alternative junction (AJ) mRNA, read-out: HTT AJ (AC50, increase in alternative junction mRNA)
[7] = Table 2A, THP, HTT canonical junction (CJ) mRNA, read-out: HTT CJ (IC50, decrease in canonical junction mRNA)
[8] = Table 2A, THP, MYB alternative junction (AJ) mRNA, read-out: MYB AJ (AC50, increase in alternative junction mRNA)
[9] = Table 2A, THP, MYB canonical junction (CJ) mRNA, read-out: MYB CJ (IC50, decrease in canonical junction mRNA)
[10] = decrease in CJ mRNA levels, canonical junction qPCR, gene panel
[11] = Table 2A (THP), AJ mRNA increase, read-out: HTT AJ (increase in alternative junction mRNA, AC50)
[12] = Table 2A (THP), CJ mRNA decrease, read-out: HTT CJ (decrease in canonical junction mRNA, IC50)
[13] = Table 2A (THP), AJ mRNA increase, read-out: MYB AJ (increase in alternative junction mRNA, AC50)
[14] = Table 2A (THP), CJ mRNA decrease, read-out: MYB CJ (decrease in canonical junction mRNA, IC50)
[15] = decrease in canonical junction (CJ) mRNA, gene panel qPCR, Table 3

## COc1cc2c(N3CCC(NC4CC4)CC3)ccc(C(=O)Nc3cc(CNS(C)(=O)=O)c4nn(C)cc4c3)n2n1 [Compound 821]
[1]; [6]
  AC50: > 10000 nM
[1]; [7]
  IC50: 1000 to 10000 nM
[2]; [8]
  AC50: 100 to 1000 nM
[2]; [9]
  IC50: 100 to 1000 nM
[3]; [10]
  IC50: 1000 to 10000 nM
[4]; [10]
  IC50: 100 to 1000 nM
[5]
  GI50: 1000 to 10000 nM

## COc1nc2c(C(=O)Nc3cc4cn(C)nc4c(C)c3O)ccc(N3C[C@H](C)N[C@@H](C)C3)c2s1 [Compound 726, 7-[(3S,5S)-3,5-dimethylpiperazin-1-yl]-N-(6-hydroxy-2,7-dimethyl-indazol-5-yl)-2-methoxy-1,3-benzothiazole-4-carboxamide]
[1]; [6]
  AC50: > 10000 nM
[1]; [7]
  IC50: > 10000 nM
[2]; [8]
  AC50: 100 to 1000 nM
[2]; [9]
  IC50: 1000 to 10000 nM
[3]; [10]
  IC50: > 10000 nM
[4]; [10]
  IC50: 1000 to 10000 nM
[5]
  GI50: 1000 to 10000 nM

## Cc1cn2cc(NC(=O)c3ccc(N4CCC5NCC5C4)c4cn(C)nc34)nc2c(C)n1 (stereo not drawn) [Compound 530]
[1]; [11]
  AC50: > 10000 nM
[1]; [12]
  IC50: > 10000 nM
[2]; [13]
  AC50: > 10000 nM
[2]; [14]
  IC50: 1000 to 10000 nM
[3]; [15]
  IC50: > 10000 nM
[4]; [15]
  IC50: 1000 to 10000 nM
[5]
  GI50: > 10000 nM

## COc1nc2c(C(=O)Nc3cc(F)c4nn(C)cc4c3)ccc(N3CCNC(C)C3C)c2s1 (stereo not drawn) [Compound 771, 7-(2,3-dimethylpiperazin-1-yl)-N-(7-fluoro-2-methyl-indazol-5-yl)-2-methoxy-1,3-benzothiazole-4-carboxamide]
[1]; [6]
  AC50: > 10000 nM
[1]; [7]
  IC50: 1000 to 10000 nM
[2]; [8]
  AC50: 100 to 1000 nM
[2]; [9]
  IC50: 100 to 1000 nM
[3]; [10]
  IC50: 1000 to 10000 nM
[4]; [10]
  IC50: 100 to 1000 nM
[5]
  GI50: 100 to 1000 nM

## COc1cc2nn(C)cc2cc1NC(=O)c1ccc(N2CCC(NC3CC3)CC2)c2cn(C)nc12 [Compound 444, 4-[4-(cyclopropylamino)-1-piperidyl]-N-(6-methoxy-2-methyl-indazol-5-yl)-2-methyl-indazole-7-carbox-amide]
[1]; [11]
  AC50: 1000 to 10000 nM
[1]; [12]
  IC50: 1000 to 10000 nM
[2]; [13]
  AC50: < 100 nM
[2]; [14]
  IC50: 100 to 1000 nM
[3]; [15]
  IC50: 1000 to 10000 nM
[4]; [15]
  IC50: 100 to 1000 nM
[5]
  GI50: 100 to 1000 nM

## CCNC1CCN(c2ccc(C(=O)Nc3cn4cc(C)nc(CNS(C)(=O)=O)c4n3)c3nn(C)cc23)CC1 [Compound 884]
[1]; [6]
  AC50: > 10000 nM
[1]; [7]
  IC50: > 10000 nM
[2]; [8]
  AC50: 1000 to 10000 nM
[2]; [9]
  IC50: 1000 to 10000 nM
[3]; [10]
  IC50: > 10000 nM
[4]; [10]
  IC50: 1000 to 10000 nM
[5]
  GI50: > 10000 nM

## COc1cc2nn(C)cc2cc1NC(=O)c1ccc(N2CCC(NC3CC3)CC2)c2cc(CF)nn12 [Compound 625, 4-[4-(cyclopropylamino)-1-piperidyl]-2-(fluoromethyl)-N-(6-methoxy-2-methyl-indazol-5-yl)pyrazolo[1,5-a]-pyridine-7-carboxamide]
[1]; [6]
  AC50: 100 to 1000 nM
[1]; [7]
  IC50: 100 to 1000 nM
[2]; [8]
  AC50: < 100 nM
[2]; [9]
  IC50: < 100 nM
[3]; [10]
  IC50: 100 to 1000 nM
[4]; [10]
  IC50: < 100 nM
[5]
  GI50: 100 to 1000 nM

## COc1nc2nn(C)cc2cc1NC(=O)c1c(F)cc(N2CCC(NC3CC3)CC2)c2cn(C)nc12 [Compound 431, 4-[4-(cyclopropylamino)-1-piperidyl]-6-fluoro-N-(6-methoxy-2-methyl-pyrazolo-[3,4-b]pyridin-5-yl)-2-methyl-indazole-7-carboxamide]
[1]; [11]
  AC50: 100 to 1000 nM
[1]; [12]
  IC50: 100 to 1000 nM
[2]; [13]
  AC50: < 100 nM
[2]; [14]
  IC50: < 100 nM
[3]; [15]
  IC50: 100 to 1000 nM
[4]; [15]
  IC50: < 100 nM
[5]
  GI50: 100 to 1000 nM

## Cc1cn2cc(NC(=O)c3ccc(N4CCN(C5CNC5)CC4)c4cn(C)nc34)nc2c(C)n1 [Compound 533]
[1]; [11]
  AC50: 100 to 1000 nM
[1]; [12]
  IC50: 100 to 1000 nM
[2]; [13]
  AC50: 100 to 1000 nM
[2]; [14]
  IC50: 100 to 1000 nM
[3]; [15]
  IC50: 100 to 1000 nM
[4]; [15]
  IC50: 100 to 1000 nM
[5]
  GI50: 100 to 1000 nM

## COc1nc2nc(C)cn2cc1NC(=O)c1ccc(N2CCC(NC3CC3)CC2)c2cn(C)nc12 [Compound 524, 4-[4-(cyclopropyl-amino)-1-piperidyl]-N-(7-methoxy-2-methylimidazo-[1,2-a]-pyrimidin-6-yl)-2-methyl-indazole-7-carboxamide]
[1]; [11]
  AC50: 1000 to 10000 nM
[1]; [12]
  IC50: 1000 to 10000 nM
[2]; [13]
  AC50: < 100 nM
[2]; [14]
  IC50: < 100 nM
[3]; [15]
  IC50: 1000 to 10000 nM
[4]; [15]
  IC50: < 100 nM
[5]
  GI50: 100 to 1000 nM

## CCNC1CCN(c2ccc(C(=O)Nc3cc4cn(C)nc4cc3OC)c3nn(C)cc23)C(C)C1 (stereo not drawn) [Compound 736, 4-(4-(ethylamino)-2-methylpiperidin-1-yl)-N-(6-methoxy-2-methyl-2H-indazol-5-yl)-2-methyl-2H-indazole-7-carboxamide 2,2,2-trifluoroacetate]
[1]; [6]
  AC50: > 10000 nM
[1]; [7]
  IC50: > 10000 nM
[2]; [8]
  AC50: 1000 to 10000 nM
[2]; [9]
  IC50: > 10000 nM
[3]; [10]
  IC50: > 10000 nM
[4]; [10]
  IC50: > 10000 nM
[5]
  GI50: 1000 to 10000 nM

## COc1cc2c(N3CCC(NC4CC4)CC3)ccc(C(=O)Nc3cn4cc(C)nc(CNS(C)(=O)=O)c4n3)n2n1 [Compound 806]
[1]; [6]
  AC50: > 10000 nM
[1]; [7]
  IC50: > 10000 nM
[2]; [8]
  AC50: 1000 to 10000 nM
[2]; [9]
  IC50: 1000 to 10000 nM
[3]; [10]
  IC50: > 10000 nM
[4]; [10]
  IC50: 1000 to 10000 nM
[5]
  GI50: 1000 to 10000 nM

## Cc1cn2cc(NC(=O)c3ccc(N4CCC(NC5CC5)CC4)c4cn(C)nc34)cc(Oc3ccnnc3)c2n1 [Compound 322, 4-[4-(cyclopropyl-amino)-1-piperidyl]-2-methyl-N-(2-methyl-8-pyridazin-4-yloxy-imidazo[1,2-a]-pyridin-6-yl)-indazole-7-carboxamide]
[1]; [11]
  AC50: 1000 to 10000 nM
[1]; [12]
  IC50: 1000 to 10000 nM
[2]; [13]
  AC50: 1000 to 10000 nM
[2]; [14]
  IC50: 1000 to 10000 nM
[3]; [15]
  IC50: 1000 to 10000 nM
[4]; [15]
  IC50: 1000 to 10000 nM
[5]
  GI50: 1000 to 10000 nM

## COc1cc2nn(C)c(C)c2cc1NC(=O)c1c(F)cc(N2CCC(NC3CC3)CC2)c2cn(C)nc12 [Compound 418, 4-[4-(cyclopropylamino)-1-piperidyl]-6-fluoro-N-(6-methoxy-2,3-dimethyl-indazol-5-yl)-2-methyl-indazole-7-carboxamide]
[1]; [11]
  AC50: > 10000 nM
[1]; [12]
  IC50: > 10000 nM
[2]; [13]
  AC50: 100 to 1000 nM
[2]; [14]
  IC50: 1000 to 10000 nM
[3]; [15]
  IC50: > 10000 nM
[4]; [15]
  IC50: 1000 to 10000 nM
[5]
  GI50: 100 to 1000 nM

## Cn1cc2cc(NC(=O)c3ccc(N4CCC(NC5CC5)CC4)c4cn(C)nc34)cc(CNC3(C)COC3)c2n1 [Compound 834]
[1]; [6]
  AC50: > 10000 nM
[1]; [7]
  IC50: > 10000 nM
[2]; [8]
  AC50: > 10000 nM
[2]; [9]
  IC50: > 10000 nM
[3]; [10]
  IC50: > 10000 nM
[4]; [10]
  IC50: > 10000 nM
[5]
  GI50: > 10000 nM

## COc1nc2c(C(=O)Nc3cc(F)c4nn(C)cc4c3)ccc(N3C[C@@H](C)N(C)[C@@H](C)C3)c2s1 [Compound 744, N-(7-fluoro-2-methyl-indazol-5-yl)-2-methoxy-7-[(3R,5S)-3,4,5-trimethylpiperazin-1-yl]-1,3-benzothiazole-4-carboxamide]
[1]; [6]
  AC50: 100 to 1000 nM
[1]; [7]
  IC50: 1000 to 10000 nM
[2]; [8]
  AC50: < 100 nM
[2]; [9]
  IC50: < 100 nM
[3]; [10]
  IC50: 1000 to 10000 nM
[4]; [10]
  IC50: < 100 nM
[5]
  GI50: 100 to 1000 nM

## COc1nc2nn(C)cc2cc1NC(=O)c1ccc(N2CCC(NC3CC3)CC2)c2cn(C)nc12 [Compound 460, 4-[4-(cyclopropylamino)-1-piperidyl]-N-(6-methoxy-2-methyl-pyrazolo[3,4-b]-pyridin-5-yl)-2-methyl-indazole-7-carboxamide]
[1]; [11]
  AC50: 1000 to 10000 nM
[1]; [12]
  IC50: 1000 to 10000 nM
[2]; [13]
  AC50: 100 to 1000 nM
[2]; [14]
  IC50: 100 to 1000 nM
[3]; [15]
  IC50: 1000 to 10000 nM
[4]; [15]
  IC50: 100 to 1000 nM
[5]
  GI50: 1000 to 10000 nM

## Cc1cn2cc(NC(=O)c3ccc(N4CCC5(CCCN5)CC4)c4cn(C)nc34)nc2c(C)n1 [Compound 529]
[1]; [11]
  AC50: > 10000 nM
[1]; [12]
  IC50: > 10000 nM
[2]; [13]
  AC50: 100 to 1000 nM
[2]; [14]
  IC50: 100 to 1000 nM
[3]; [15]
  IC50: > 10000 nM
[4]; [15]
  IC50: 100 to 1000 nM
[5]
  GI50: 1000 to 10000 nM
